ChEMBL document CHEMBL4308854, “Novel indole-thiazolidinone conjugates: Design, synthesis and whole-cell phenotypic evaluation as a novel class of antimicrobial agents” (Eur J Med Chem, 2018)
≈ marks a conversion by molar mass, not a printed value.

How the values were obtained:
[1] = tested on: Mycobacterium tuberculosis; test: Antitubercular activity against Mycobacterium tuberculosis RCMB 010126 clinical isolate after 4 days by microplate alamar blue assay; type: functional; conditions: for MIC: Mycobacterium tuberculosis, RCMB 010126, 96 h
KM12 = test: Growth inhibition of human KM12 cells assessed as cell growth at 10^-5 M incubated for 48 hrs by sulforhodamine B assay relative to control; type: cell-based; parameters: scale not given: the % may be the effect or the level left; conditions: km12, 48 h, 10 µM
SF-295 = test: Growth inhibition of human SF295 cells assessed as cell growth at 10^-5 M incubated for 48 hrs by sulforhodamine B assay relative to control; type: cell-based; parameters: scale not given: the % may be the effect or the level left; conditions: sf-295, 48 h, 10 µM
HT-29 = test: Growth inhibition of human HT-29 cells assessed as cell growth at 10^-5 M incubated for 48 hrs by sulforhodamine B assay relative to control; type: cell-based; parameters: scale not given: the % may be the effect or the level left; conditions: ht-29, 48 h, 10 µM
SNB-75 = test: Growth inhibition of human SNB75 cells assessed as cell growth at 10^-5 M incubated for 48 hrs by sulforhodamine B assay relative to control; type: cell-based; parameters: scale not given: the % may be the effect or the level left; conditions: snb-75, 48 h, 10 µM
UACC-62 = test: Growth inhibition of human UACC62 cells assessed as cell growth at 10^-5 M incubated for 48 hrs by sulforhodamine B assay relative to control; type: cell-based; parameters: scale not given: the % may be the effect or the level left; conditions: uacc-62, 48 h, 10 µM
CCRF-CEM = test: Growth inhibition of human CCRF-CEM cells assessed as cell growth at 10^-5 M incubated for 48 hrs by sulforhodamine B assay relative to control; type: cell-based; parameters: scale not given: the % may be the effect or the level left; conditions: 10 µM
Staphylococcus aureus [2] = test: Antibacterial activity against Staphylococcus aureus RCMB 010028 after 24 hrs by serial dilution method; type: functional; conditions: RCMB 010028, 24 h
ACHN = test: Growth inhibition of human ACHN cells assessed as cell growth at 10^-5 M incubated for 48 hrs by sulforhodamine B assay relative to control; type: cell-based; parameters: scale not given: the % may be the effect or the level left; conditions: 10 µM
DU-145 = test: Growth inhibition of human DU145 cells assessed as cell growth at 10^-5 M incubated for 48 hrs by sulforhodamine B assay relative to control; type: cell-based; parameters: scale not given: the % may be the effect or the level left; conditions: du-145, 48 h, 10 µM
Escherichia coli [3] = test: Potency index, ratio of ciprofloxacin MIC to compound MIC for Escherichia coli RCMB 010052; type: functional
Escherichia coli [4] = test: Antibacterial activity against Escherichia coli RCMB 010052 after 24 hrs by serial dilution method; type: functional; conditions: RCMB 010052, 24 h
OVCAR-3 = test: Growth inhibition of human OVCAR3 cells assessed as cell growth at 10^-5 M incubated for 48 hrs by sulforhodamine B assay relative to control; type: cell-based; parameters: scale not given: the % may be the effect or the level left; conditions: ovcar-3, 48 h, 10 µM
HOP-62 = test: Growth inhibition of human HOP62 cells assessed as cell growth at 10^-5 M incubated for 48 hrs by sulforhodamine B assay relative to control; type: cell-based; parameters: scale not given: the % may be the effect or the level left; conditions: hop-62, 48 h, 10 µM
Candida albicans = test: Antifungal activity against Candida albicans RCMB 05036 assessed as diameter of zone inhibition after 48 hrs by agar well diffusion assay; type: functional
[5] = Stability in mouse RAW264.7 cells measured after 48 hrs; type: ADME, cell-based; conditions: raw264.7, 48 h
LOX IMVI = test: Growth inhibition of human LOXIMVI cells assessed as cell growth at 10^-5 M incubated for 48 hrs by sulforhodamine B assay relative to control; type: cell-based; parameters: scale not given: the % may be the effect or the level left; conditions: 10 µM
WI-38 = test: Cytotoxicity against human WI38 cells by MTT assay; type: cell-based
MOLT-4 = test: Growth inhibition of human MOLT4 cells assessed as cell growth at 10^-5 M incubated for 48 hrs by sulforhodamine B assay relative to control; type: cell-based; parameters: scale not given: the % may be the effect or the level left; conditions: molt-4, 48 h, 10 µM
IGROV-1 = test: Growth inhibition of human IGROV1 cells assessed as cell growth at 10^-5 M incubated for 48 hrs by sulforhodamine B assay relative to control; type: cell-based; parameters: scale not given: the % may be the effect or the level left; conditions: igrov-1, 48 h, 10 µM
UACC-257 = test: Growth inhibition of human UACC257 cells assessed as cell growth at 10^-5 M incubated for 48 hrs by sulforhodamine B assay relative to control; type: cell-based; parameters: scale not given: the % may be the effect or the level left; conditions: uacc-257, 48 h, 10 µM
MDA-MB-231 = test: Growth inhibition of human MDA-MB-231 cells assessed as cell growth at 10^-5 M incubated for 48 hrs by sulforhodamine B assay relative to control; type: cell-based; parameters: scale not given: the % may be the effect or the level left; conditions: mda-mb-231, 48 h, 10 µM
Malme-3M = test: Growth inhibition of human MALME-3M cells assessed as cell growth at 10^-5 M incubated for 48 hrs by sulforhodamine B assay relative to control; type: cell-based; parameters: scale not given: the % may be the effect or the level left; conditions: 10 µM
HCT-15 = test: Growth inhibition of human HCT15 cells assessed as cell growth at 10^-5 M incubated for 48 hrs by sulforhodamine B assay relative to control; type: cell-based; parameters: scale not given: the % may be the effect or the level left; conditions: hct-15, 48 h, 10 µM
SNB-19 = test: Growth inhibition of human SNB19 cells assessed as cell growth at 10^-5 M incubated for 48 hrs by sulforhodamine B assay relative to control; type: cell-based; parameters: scale not given: the % may be the effect or the level left; conditions: snb-19, 48 h, 10 µM
OVCAR-8 = test: Growth inhibition of human OVCAR8 cells assessed as cell growth at 10^-5 M incubated for 48 hrs by sulforhodamine B assay relative to control; type: cell-based; parameters: scale not given: the % may be the effect or the level left; conditions: ovcar-8, 48 h, 10 µM
Pseudomonas aeruginosa [6] = test: Antibacterial activity against Pseudomonas aeruginosa RCMB 010043 after 24 hrs by serial dilution method; type: functional; conditions: RCMB 010043, 24 h
COLO 205 = test: Growth inhibition of human COLO205 cells assessed as cell growth at 10^-5 M incubated for 48 hrs by sulforhodamine B assay relative to control; type: cell-based; parameters: scale not given: the % may be the effect or the level left; conditions: colo 205, 48 h, 10 µM
NCI-H322M = test: Growth inhibition of human NCI-H322M cells assessed as cell growth at 10^-5 M incubated for 48 hrs by sulforhodamine B assay relative to control; type: cell-based; parameters: scale not given: the % may be the effect or the level left; conditions: 10 µM
PC-3 = test: Growth inhibition of human PC3 cells assessed as cell growth at 10^-5 M incubated for 48 hrs by sulforhodamine B assay relative to control; type: cell-based; parameters: scale not given: the % may be the effect or the level left; conditions: pc-3, 48 h, 10 µM
SW-620 = test: Growth inhibition of human SW620 cells assessed as cell growth at 10^-5 M incubated for 48 hrs by sulforhodamine B assay relative to control; type: cell-based; parameters: scale not given: the % may be the effect or the level left; conditions: sw-620, 48 h, 10 µM
Staphylococcus aureus [7] = test: Potency index, ratio of ciprofloxacin MIC to compound MIC for Staphylococcus aureus RCMB 010028; type: functional
BT-549 = test: Growth inhibition of human BT549 cells assessed as cell growth at 10^-5 M incubated for 48 hrs by sulforhodamine B assay relative to control; type: cell-based; parameters: scale not given: the % may be the effect or the level left; conditions: bt-549, 48 h, 10 µM
SK-OV-3 = test: Growth inhibition of human SKOV3 cells assessed as cell growth at 10^-5 M incubated for 48 hrs by sulforhodamine B assay relative to control; type: cell-based; parameters: scale not given: the % may be the effect or the level left; conditions: sk-ov-3, 48 h, 10 µM
Hs-578T = test: Growth inhibition of human Hs 578T cells assessed as cell growth at 10^-5 M incubated for 48 hrs by sulforhodamine B assay relative to control; type: cell-based; parameters: scale not given: the % may be the effect or the level left; conditions: 10 µM
Aspergillus fumigatus = test: Antifungal activity against Aspergillus fumigatus RCMB 02568 after 24 hrs by serial dilution method; type: functional; conditions: RCMB 02568, 24 h
Pseudomonas aeruginosa [8] = test: Potency index, ratio of ciprofloxacin MIC to compound MIC for Pseudomonas aeruginosa RCMB 010043; type: functional

| Structure (SMILES) | inhibition (INH) [1] [%] | MIC [1] [µg/mL] | Activity (KM12) [%] | Activity (SF-295) [%] | Activity (HT-29) [%] | Activity (SNB-75) [%] | Activity (UACC-62) [%] | Activity (CCRF-CEM) [%] | MIC (Staphylococcus aureus [2]) [µg/mL] | Activity (ACHN) [%] | Activity (DU-145) [%] | Ratio (Escherichia coli [3]) | MIC (Escherichia coli [4]) [µg/mL] | Activity (OVCAR-3) [%] | Activity (HOP-62) [%] | diameter of the inhibition zone (DIZ) (Candida albicans) [mm] | Stability [5] | Activity (LOX IMVI) [%] | IC50 (WI-38) [µg/mL] | Activity (MOLT-4) [%] | further results |
| --- | --- | --- | --- | --- | --- | --- | --- | --- | --- | --- | --- | --- | --- | --- | --- | --- | --- | --- | --- | --- | --- |
| CC(=O)c1sc(/N=C2\NC(=O)/C(=C3/C(=O)N(C)c4ccc(Cl)cc43)S2)nc1C | 76.35 | 0.39 (≈ 0.901 µM) | 94.43 | 101.25 | 98.45 | 104.77 | 84.61 | 111 | 0.98 (≈ 2.26 µM) | 104.32 | 100.78 | 4 | 0.49 (≈ 1.13 µM) | 96.17 | 116.23 | 24.1 | Stable | 88.14 | 19.5 (≈ 45 µM) | 105.36 | Activity (IGROV-1): 94.36%; Activity (UACC-257): 114.2%; Activity (MDA-MB-231): 91.15%; Activity (Malme-3M): 85.96%; Activity (HCT-15): 101.97%; Activity (SNB-19): 98.6%; Activity (OVCAR-8): 117.64%; MIC (Pseudomonas aeruginosa [6]): 0.98 µg/mL (≈ 2.26 µM); Activity (COLO 205): 108.28%; Activity (NCI-H322M): 96.29%; Activity (PC-3): 96.23%; Activity (SW-620): 119.01%; Ratio (Staphylococcus aureus [7]): 2; Activity (BT-549): 94.91%; Activity (SK-OV-3): 117.19%; Activity (Hs-578T): 115.73%; MIC (Aspergillus fumigatus): 0.98 µg/mL (≈ 2.26 µM); Ratio (Pseudomonas aeruginosa [8]): 4 |
| CCOC(=O)c1sc(/N=C2\NC(=O)/C(=C3/C(=O)N(Cc4ccccc4)c4ccc(Cl)cc43)S2)nc1C | 75.32 | 0.39 (≈ 0.724 µM) | 101.95 | 103.03 | 100.13 | 90.57 | 103.68 | 98.38 | 0.98 (≈ 1.82 µM) | 110.67 | 104.75 | 2 | 0.98 (≈ 1.82 µM) | 105.46 | 98.01 | 21.7 | Stable | 96.03 | 52.1 (≈ 96.7 µM) | 97.7 | Activity (IGROV-1): 105.63%; Activity (UACC-257): 106.14%; Activity (MDA-MB-231): 100.41%; Activity (Malme-3M): 102.79%; Activity (HCT-15): 100.31%; Activity (SNB-19): 103.82%; Activity (OVCAR-8): 103.48%; MIC (Pseudomonas aeruginosa [6]): 1.95 µg/mL (≈ 3.62 µM); Activity (COLO 205): 101.47%; Activity (NCI-H322M): 111.22%; Activity (PC-3): 91.84%; Activity (SW-620): 98.41%; Ratio (Staphylococcus aureus [7]): 2; Activity (BT-549): 103.71%; Activity (SK-OV-3): 103.42%; Activity (Hs-578T): 94.4%; MIC (Aspergillus fumigatus): 1.95 µg/mL (≈ 3.62 µM); Ratio (Pseudomonas aeruginosa [8]): 2 |
